Here are results for 14 molecules from US11034648B2, “Cystobactamide derivatives” (priority 2017, dated 2021).

Each structure is given as a SMILES string. Converted amounts (≈) assume the structure as drawn. Where two headings read alike, the source gives them in different places.

What all share (format): cell-based
One test relates to E. coli ΔtolC. In words: microbe, parasite or virus in culture. Conditions: Escherichia coli, 16 h, read-out: MIC E. coli ΔtolC, small panel, Tables 1a/1b; no visual growth after approx. 16 h. The protocol: (§1) Cystobactamid derivatives synthesized were tested against relevant Gram negative and positive bacteria of clinical interest. Experimental procedures used for the biological characterization of the compounds are the same as previously described in WO 2016/082934.
(§2) Bacterial strains used in susceptibility assays (minimum inhibitory concentration, MIC) were either part of our internal strain collection or purchased from the German Collection of Microorganisms and Cell Cultures (Deutsche Sammlung von Mikroorganismen und Zellkulturen, DSMZ) and the American Type Culture Collection (ATCC). The susceptible E. coli strain (WT) and fluoroquinolone-resistant mutants E. coli WT-3 and WT-III were kindly provided by Prof Dr. P. Heisig, Pharmaceutical Biology and Microbiology, University of Hamburg, Germany. The efflux-deficient strain P. aeruginosa ΔmexAB was kindly provided by Prof Dr. S. Häußler, Institute for Molecular Bacteriology, TWINCORE, Hannover, Germany. All compounds were prepared as DMSO stocks and MIC values were determined in standard microbroth dilution assays in 96-well MTPs as described in Baumann et al., Angew Chem Int Ed Engl. 2014; 53(52):14605-9. In brief, overnight cultures of bacteria were diluted in either tryptic soy broth (TSB: 1.7% peptone casein, 0.3% peptone soymeal, 0.25% glucose, 0.5% NaCl, 0.25% K2HPO4; pH 7.3; S. pneumoniae and E. faecalis) or cation-adjusted Müller-Hinton Broth (BBL™, BD; all other bacteria) and adjusted to 10^4-10^6 cfu/mL. Bacteria were grown in the presence of the derivatives in serial dilution for approx. 16 h at 30-37° C. MIC values were determined and were defined as the antibiotic concentration at which no visual growth of bacteria was observed.

A further test deals with P. aeruginosa ΔmexAB. Briefly: microbe, parasite or virus in culture. The following applies: Pseudomonas aeruginosa, 16 h, read-out: MIC P. aeruginosa ΔmexAB, efflux-deficient strain; small panel, Tables 1a/1b. The protocol:
as §1, §2

The test system of a further test is P. aeruginosa WT PA14. In words: MIC, microbroth dilution susceptibility assay. Conditions: Pseudomonas aeruginosa. The method, then: as §1, §2
In the next test the test system is S. aureus Newman. In words: MIC, microbroth dilution susceptibility assay. The following applies: Staphylococcus aureus, NEWMAN, read-out: MIC S. aureus Newman. The method, then: as §1, §2
(Broth dilution looks for growth in wells or tubes with falling amounts of substance.)

Another test relates to E. coli WT DSM-1116. Briefly: MIC, microbroth dilution susceptibility assay. Conditions: Escherichia coli, no visual growth after approx. 16 h. The protocol: as §1, §2
Where [1] appears, read: PA14, small panel, Tables 1a/1b, read-out: MIC P. aeruginosa WT PA14.
[2] abbreviates: DSM1116, small panel, Tables 1a/1b, read-out: MIC E. coli WT DSM-1116.

In the case of `CC(C)Oc1c(NC(=O)c2ccc(NC(=O)[C@H](CC(N)=O)NC(=O)c3ccc(C#Cc4ccc(C#N)cc4)cc3)cc2)ccc(C(=O)Nc2ccc(C(=O)O)cc2)c1O` [Compound 128, (S)-4-(4-(4-(4-Amino-2-(4-((4-cyanophenyl)ethynyl)benzamido)-4-oxobutanamido)benzamido)-2-hydroxy-3-isopropoxybenzamido)benzoic acid], the MIC in the test with E. coli ΔtolC is 0.06 µg/mL (≈ 0.0757 µM); with P. aeruginosa ΔmexAB, 0.5 µg/mL (≈ 0.631 µM); in the test with P. aeruginosa WT PA14 (PA14, read-out: MIC P. aeruginosa WT PA14), above 64 µg/mL; in the test on S. aureus Newman, below 0.03 µg/mL; in the test on E. coli WT DSM-1116 (DSM1116, 16 h, read-out: MIC E. coli WT DSM-1116, small panel, Tables 1a/1b) it was 0.06 µg/mL (≈ 0.0757 µM).

`CC(C)Oc1c(NC(=O)c2ccc(NC(=O)[C@H](CC(N)=O)NC(=O)c3ccc(NC(=O)c4ccc(S(C)(=O)=O)cc4)cc3)cc2)ccc(C(=O)Nc2ccc(C(=O)O)cc2)c1O` [Compound 56, (S)-4-(4-(4-(4-amino-2-(4-(4-(methylsulfonyl)benzamido)benzamido)-4-oxobutanamido)benzamido)-2-hydroxy-3-isopropoxybenzamido)benzoic acid]: the MIC with E. coli ΔtolC was below 0.03 µg/mL; in the test on P. aeruginosa ΔmexAB, above 64 µg/mL; in the test with P. aeruginosa WT PA14 (setting [1]), above 64 µg/mL; in the test on S. aureus Newman (small panel, Tables 1a/1b) it was above 64 µg/mL; in the test with E. coli WT DSM-1116 (setting [2]) it was 2 µg/mL (≈ 2.31 µM).

As for `CC(C)Oc1c(NC(=O)c2ccc(NC(=O)[C@H](CC(N)=O)NC(=O)c3ccc(NC(=O)C(C)Oc4ccccc4)cc3)cc2)ccc(C(=O)Nc2ccc(C(=O)O)cc2)c1O` (stereo partly drawn) [Compound 54, 4-(4-(4-((2S)-4-amino-4-oxo-2-(4-(2-phenoxypropanamido)benzamido)butanamido)benzamido)-2-hydroxy-3-isopropoxybenzamido)benzoic acid], the MIC in the test with E. coli ΔtolC was 4 µg/mL (≈ 4.81 µM); in the test with P. aeruginosa ΔmexAB, above 64 µg/mL; with P. aeruginosa WT PA14 (setting [1]), above 64 µg/mL; with S. aureus Newman (small panel, Tables 1a/1b) it was above 64 µg/mL; in the test with E. coli WT DSM-1116 (setting [2]), above 64 µg/mL.

Consider `CC(C)Oc1cc(C(=O)Nc2ccc(C(=O)O)cc2)ccc1NC(=O)c1ccc(NC(=O)[C@H](CC(N)=O)NC(=O)c2ccc(NC(=O)c3ccc([N+](=O)[O-])cc3)cc2)cc1` [Compound 69, (S)-4-(4-(4-(4-amino-2-(4-(4-nitrobenzamido)benzamido)-4-oxobutanamido)benzamido)-3-isopropoxybenzamido)benzoic acid], for which the MIC with E. coli ΔtolC was 0.06 µg/mL (≈ 0.0735 µM); with P. aeruginosa ΔmexAB it was 1 µg/mL (≈ 1.23 µM); with P. aeruginosa WT PA14 (setting [1]) it was above 64 µg/mL; in the test on S. aureus Newman (small panel, Tables 1a/1b), above 64 µg/mL; in the test with E. coli WT DSM-1116 (setting [2]), above 64 µg/mL.

For `CC(C)Oc1c(NC(=O)c2ccc(NC(=O)[C@H](CC(N)=O)NC(=O)c3ccc(NC(=O)c4ccc(C#N)cc4)cc3)cc2)ccc(C(=O)Nc2cccc(C(=O)O)c2)c1O` [Compound 90, (S)-3-(4-(4-(4-amino-2-(4-(4-cyanobenzamido)benzamido)-4-oxobutanamido)benzamido)-2-hydroxy-3-isopropoxybenzamido)benzoic acid], the MIC was 0.03 µg/mL (≈ 0.037 µM) with E. coli ΔtolC; above 64 µg/mL with P. aeruginosa ΔmexAB; above 64 µg/mL in the test with P. aeruginosa WT PA14 (setting [1]); 2 µg/mL (≈ 2.46 µM) in the test with S. aureus Newman (small panel, Tables 1a/1b); 0.5 µg/mL (≈ 0.616 µM) in the test on E. coli WT DSM-1116 (setting [2]).

In the case of `CC(C)COc1c(NC(=O)c2ccc(NC(=O)[C@H](CC(N)=O)NC(=O)c3ccc(NC(=O)c4ccc([N+](=O)[O-])cc4)cc3)cc2)ccc(C(=O)Nc2ccc(C(=O)O)cc2)c1O` [Compound 65, (S)-4-(4-(4-(4-amino-2-(4-(4-nitrobenzamido)benzamido)-4-oxobutanamido)benzamido)-2-hydroxy-3-isobutoxybenzamido)benzoic acid], the MIC in the test on E. coli ΔtolC was above 64 µg/mL; with P. aeruginosa ΔmexAB it was above 64 µg/mL; with P. aeruginosa WT PA14 (setting [1]), above 64 µg/mL; in the test on S. aureus Newman (small panel, Tables 1a/1b) it was 1 µg/mL (≈ 1.18 µM); in the test with E. coli WT DSM-1116 (setting [2]), above 64 µg/mL.

For `CC(C)Oc1c(NC(=O)c2ccc(NC(=O)[C@H](CC(N)=O)NC(=O)c3ccc(NC(=O)c4ccccc4[N+](=O)[O-])cc3)cc2)ccc(C(=O)Nc2ccc(C(=O)O)cc2)c1O` [Compound 43, (S)-4-(4-(4-(4-amino-2-(4-(2-nitrobenzamido)benzamido)-4-oxobutanamido)benzamido)-2-hydroxy-3-isopropoxybenzamido)benzoic acid], the MIC is 2 µg/mL (≈ 2.4 µM) in the test with E. coli ΔtolC; above 64 µg/mL in the test with P. aeruginosa ΔmexAB; above 64 µg/mL in the test on P. aeruginosa WT PA14 (setting [1]); above 64 µg/mL in the test on S. aureus Newman (small panel, Tables 1a/1b); above 64 µg/mL with E. coli WT DSM-1116 (setting [2]).

As for `Cc1cc(C(=O)Nc2ccc(C(=O)N[C@@H](CC(N)=O)C(=O)Nc3ccc(C(=O)Nc4ccc(C(=O)Nc5ccc(C(=O)O)cc5)c(O)c4OC(C)C)cc3)cc2)ccc1C#N` [Compound 52, (S)-4-(4-(4-(4-amino-2-(4-(4-cyano-3-methylbenzamido)benzamido)-4-oxobutanamido)benzamido)-2-hydroxy-3-isopropoxybenzamido)benzoic acid], the MIC with E. coli ΔtolC stood at 0.03 µg/mL (≈ 0.0363 µM); in the test with P. aeruginosa ΔmexAB it was 0.5 µg/mL (≈ 0.605 µM); with P. aeruginosa WT PA14 (setting [1]), 4 µg/mL (≈ 4.84 µM); in the test with S. aureus Newman (small panel, Tables 1a/1b), 2 µg/mL (≈ 2.42 µM); in the test on E. coli WT DSM-1116 (setting [2]) it was 0.5 µg/mL (≈ 0.605 µM).

For the molecule `C/C(=C\c1ccc(C#N)cc1)C(=O)Nc1ccc(C(=O)N[C@@H](CC(N)=O)C(=O)Nc2ccc(C(=O)Nc3ccc(C(=O)Nc4ccc(C(=O)O)cc4)c(O)c3OC(C)C)cc2)cc1` [Compound 58, (S,E)-4-(4-(4-(4-amino-2-(4-(3-(4-cyanophenyl)-2-methylacrylamido)benzamido)-4-oxobutanamido)benzamido)-2-hydroxy-3-isopropoxybenzamido)benzoic acid], the MIC in the test with E. coli ΔtolC was below 0.03 µg/mL; in the test on P. aeruginosa ΔmexAB, 0.25 µg/mL (≈ 0.293 µM); with P. aeruginosa WT PA14 (setting [1]) it was 1 µg/mL (≈ 1.17 µM); in the test with S. aureus Newman (small panel, Tables 1a/1b), 0.06 µg/mL (≈ 0.0704 µM); in the test on E. coli WT DSM-1116 (setting [2]), 0.125 µg/mL (≈ 0.147 µM).

Regarding `CC(C)Oc1c(NC(=O)c2ccc(NC(=O)[C@H](CC(N)=O)NC(=O)c3ccc(NC(=O)c4ccc(N)cc4)cc3)cc2)ccc(C(=O)Nc2ccc(C(=O)O)cc2)c1O` [Compound 40, (S)-4-(4-(4-(4-amino-2-(4-(4-aminobenzamido)benzamido)-4-oxobutanamido)benzamido)-2-hydroxy-3-isopropoxybenzamido)benzoic acid], the MIC in the test on E. coli ΔtolC is 32 µg/mL (≈ 39.9 µM); in the test with P. aeruginosa ΔmexAB it was 4 µg/mL (≈ 4.99 µM); with P. aeruginosa WT PA14 (setting [1]), above 64 µg/mL; in the test on S. aureus Newman (small panel, Tables 1a/1b), above 64 µg/mL; in the test on E. coli WT DSM-1116 (setting [2]), 2 µg/mL (≈ 2.49 µM).

Regarding `CC(C)Oc1c(NC(=O)c2ccc(NC(=O)[C@H](CC(N)=O)NC(=O)c3ccc(NC(=O)c4ccc(F)cc4)cc3)cc2)ccc(C(=O)Nc2ccc(C(=O)O)cc2)c1O` [Compound 39, (S)-4-(4-(4-(4-amino-2-(4-(4-fluorobenzamido)benzamido)-4-oxobutanamido)benzamido)-2-hydroxy-3-isopropoxybenzamido)benzoic acid], the MIC was 0.5 µg/mL (≈ 0.621 µM) in the test on E. coli ΔtolC; 2 µg/mL (≈ 2.49 µM) in the test with P. aeruginosa ΔmexAB; above 64 µg/mL in the test on P. aeruginosa WT PA14 (setting [1]); 2 µg/mL (≈ 2.49 µM) in the test with S. aureus Newman (small panel, Tables 1a/1b); 0.5 µg/mL (≈ 0.621 µM) in the test with E. coli WT DSM-1116 (setting [2]).

Consider `CC(C)Oc1c(NC(=O)c2ccc(NC(=O)[C@H](CC(N)=O)NC(=O)c3ccc(NC(=O)c4ccc(C#N)cc4)cc3)cc2)ccc(C(=O)N[C@@H]2CONC2=O)c1O` [Compound 93, (S)-2-(4-(4-cyanobenzamido)benzamido)-N1-(4-((3-hydroxy-2-isopropoxy-4-(((R)-3-oxoisoxazolidin-4-yl)carbamoyl)phenyl)carbamoyl)phenyl)succinamide], for which the MIC in the test on E. coli ΔtolC was 0.5 µg/mL (≈ 0.644 µM); in the test on P. aeruginosa ΔmexAB, above 64 µg/mL; in the test on P. aeruginosa WT PA14 (setting [1]) it was above 64 µg/mL; in the test with S. aureus Newman (small panel, Tables 1a/1b), above 64 µg/mL; in the test with E. coli WT DSM-1116 (setting [2]), above 64 µg/mL.

For `Cc1cc(C#N)ccc1C(=O)Nc1ccc(C(=O)N[C@@H](CC(N)=O)C(=O)Nc2ccc(C(=O)Nc3ccc(C(=O)Nc4ccc(C(=O)O)cc4)c(O)c3OC(C)C)cc2)cc1` [Compound 50, (S)-4-(4-(4-(4-amino-2-(4-(4-cyano-2-methylbenzamido)benzamido)-4-oxobutanamido)benzamido)-2-hydroxy-3-isopropoxybenzamido)benzoic acid], the MIC is 0.03 µg/mL (≈ 0.0363 µM) in the test on E. coli ΔtolC; 2 µg/mL (≈ 2.42 µM) with P. aeruginosa ΔmexAB; above 64 µg/mL in the test with P. aeruginosa WT PA14 (setting [1]); 64 µg/mL (≈ 77.5 µM) with S. aureus Newman (small panel, Tables 1a/1b); 0.5 µg/mL (≈ 0.605 µM) in the test on E. coli WT DSM-1116 (setting [2]).

Turning to `CC(C)Oc1c(NC(=O)c2ccc(NC(=O)[C@H](CC(N)=O)NC(=O)c3ccc(NC(=O)c4ccc(NC(N)=O)cc4)cc3)cc2)ccc(C(=O)Nc2ccc(C(=O)O)cc2)c1O` [Compound 46, (S)-4-(4-(4-(4-amino-4-oxo-2-(4-(4-ureidobenzamido)benzamido)butanamido)benzamido)-2-hydroxy-3-isopropoxybenzamido)benzoic acid], the MIC in the test with E. coli ΔtolC is 0.03 µg/mL (≈ 0.0355 µM); with P. aeruginosa ΔmexAB, 4 µg/mL (≈ 4.73 µM); in the test with P. aeruginosa WT PA14 (setting [1]), above 64 µg/mL; with S. aureus Newman (small panel, Tables 1a/1b) it was 64 µg/mL (≈ 75.8 µM); with E. coli WT DSM-1116 (setting [2]) it was 0.5 µg/mL (≈ 0.592 µM).
